In patent US10329307B2, “Heterocyclic compounds as inhibitors of platelet aggregation” (UNIVERSITE DE MONTREAL, priority 2015, dated 2019):

Molecular target: PAR4 (Homo sapiens (Human), UniProt Q96RI0)
Experiment: FLIPR assay in PAR4-expressing HEK293 cells (PAR4 antagonist activity)
Assay type: cell-based
Conditions: H-Ala-Phe(4-F)-Pro-Gly-Trp-Leu-Val-Lys-Asn-Gly-NH2-induced intracellular calcium mobilization, 11-point curves
Description: The FLIPR assay is an exemplary in vitro assay for measuring the activity of the PAR4 antagonists of the present invention. In this assay, intracellular calcium mobilization is induced in PAR4 expressing cells by a PAR4 agonist and calcium mobilization is monitored. See, e.g., Example A.
HEK293 cells stably expressing PAR4 were generated by a standard method of transfection of human […] cDNA expression vector or by RAGE technology from Athersys Inc. (Cleveland, Ohio) and selected based on PAR4 protein expression of mRNA expression. […] These cells express endogenous PAR1 and can elicit calcium signal upon stimulation with PAR1 agonist peptide. Cells were grown in Dulbecco's Modified Eagle's Medium (DMEM) (Invitrogen, Carlsbad, Calif.), 10% FBS, 1% PSG, 3 μg/ml puromycin and 25 nM Methotrexate) at 37° C. with 5% CO2.
FLIPR-based calcium mobilization assay in HEK293 cells was used to measure PAR4 antagonism, agonism, and selectivity against PAR1. […] Counter screens for agonist activity and PAR1 antagonist activity were also performed. Briefly, PAR1/PAR4-expressing HEK293 cells were grown in DMEM (Life Technology, Grand Island, N.Y.) containing 10% heat-inactivated FBS, 1% Penicillin-Streptomycin, 10 μg/mL blasticidin, and 100 μg/mL Zeocin at 37° C. with 5% CO2. Cells were plated overnight prior to the experiment in a black 384-well Purecoat Amine clear bottom plate (Becton Dickinson Biosciences, San Jose, Calif.) at 10,000 cells/well in 30 μL growth medium and incubated in a humidified chamber at 37° C. with 5% CO2 overnight. Prior to compound addition, the cell medium was replaced with 40 μL of 1× calcium and magnesium-containing Hank's Balanced Saline Solution (HBSS) (with 20 mM HEPES) and 1:1000 diluted fluorescent calcium indicator (Codex Biosolutions, Gaithersburg, Md.). After a 30 minute incubation period at 37° C. and a further 30 minute incubation and equilibration period at room temperature, 20 μL test compound (diluted in 1×HBSS buffer) was added at various concentrations at 0.17% dimethyl sulfoxide (DMSO) final concentration. Changes in fluorescence intensity were measured using a Functional Drug Screening System (FDSS, Hamamatsu, Japan) to determine agonist activities. The cells were then incubated for 30 minutes at room temperature followed by addition of 20 μL of agonist peptide for antagonist activity measurement. […] Compound potency was derived from 11-point concentration-response curves.
As indicated above, the FLIPR assay, an in vitro assay, measures the PAR4 antagonist activity of compounds tested as described in Example A.

Sequence of PAR4 (Q96RI0 18-385): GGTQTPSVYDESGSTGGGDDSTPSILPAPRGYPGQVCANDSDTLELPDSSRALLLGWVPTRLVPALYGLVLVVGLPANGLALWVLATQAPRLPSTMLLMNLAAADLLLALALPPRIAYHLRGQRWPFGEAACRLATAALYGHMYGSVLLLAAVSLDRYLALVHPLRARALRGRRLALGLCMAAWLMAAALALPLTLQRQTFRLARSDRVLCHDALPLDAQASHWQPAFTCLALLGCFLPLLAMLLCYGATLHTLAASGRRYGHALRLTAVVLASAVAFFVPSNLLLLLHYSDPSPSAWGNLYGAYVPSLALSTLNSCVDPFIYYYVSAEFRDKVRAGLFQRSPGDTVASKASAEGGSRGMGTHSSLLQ

Point of comparison: COc1ccc(N2CCCC(COc3cc(OC)cc4oc(-c5cn6nc(OC)sc6n5)cc34)C2)cc1 (stereo not shown) [Example 36], IC50 0.75 µM. Against it:
- COc1ccc(N2CC[C@@H](COc3cc(OC)cc4oc(-c5cn6nc(OC)sc6n5)cc34)C2)cc1 [Example 26] — 1.9-fold higher, 1.4 µM
- COc1cc(OC[C@H]2CCCN(C(=O)OCc3ccccc3)C2)c2cc(-c3cn4nc(OC)sc4n3)oc2c1 [Example 59] — 1.6-fold higher, 1.2 µM
- COc1ccc(N2CCCC(COc3cc(OC)cc4oc(-c5cn6nc(OC)sc6n5)cc34)C2)nc1 (stereo not shown) [Example 32] — 3.7-fold higher, 2.8 µM
- COc1cccc(N2CCC[C@H]2COc2cc(OC)cc3oc(-c4cn5nc(OC)sc5n4)cc23)c1 [Example 19] — 1.6-fold lower, 0.46 µM
- COc1cc(OC[C@H]2CCCN(c3ccc(C#N)cc3)C2)c2cc(-c3cn4nc(OC)sc4n3)oc2c1 [Example 30] — within 1.5-fold, 0.86 µM
- COc1cc(OCC2CCCN(c3ncc(Br)cn3)C2)c2cc(-c3cn4nc(OC)sc4n3)oc2c1 (stereo not shown) [Example 66] — 1.9-fold higher, 1.4 µM
- CCOC(=O)c1ccc(N2CCCCC2COc2cc(OC)cc3oc(-c4cn5nc(OC)sc5n4)cc23)cc1 (stereo not shown) [Example 45] — 2-fold lower, 0.37 µM
- COc1cc(OCC2CCC(=O)N(c3ccc(Cl)cc3)C2)c2cc(-c3cn4nc(OC)sc4n3)oc2c1 (stereo not shown) [Example 67] — 4.4-fold higher, 3.3 µM
- COc1cc(OCC2CN(c3ccc(F)cc3)C2)c2cc(-c3cn4nc(OC)sc4n3)oc2c1 [Example 27] — 3.1-fold higher, 2.3 µM
- COc1cc(OC[C@@H]2CCCN2c2ccc(C#N)cc2)c2cc(-c3cn4nc(OC)sc4n3)oc2c1 [Example 16] — 1.5-fold lower, 0.5 µM
- COc1cc(OCC2CCCN(c3ccc(Cl)cn3)C2)c2cc(-c3cn4nc(OC)sc4n3)oc2c1 (single isomer, unassigned) [Example 65] — within 1.5-fold, 1 µM
- COc1cc(OC[C@@H]2CCCN(c3ccc(C#N)cc3)C2)c2cc(-c3cn4nc(OC)sc4n3)oc2c1 [Example 28] — 2.4-fold higher, 1.8 µM
- COc1cc(OCC2CCCCN2c2ccc(Cl)cc2)c2cc(-c3cn4nc(OC)sc4n3)oc2c1 (stereo not shown) [Example 57] — within 1.5-fold, 0.74 µM
- CCOC(=O)c1ccc(N2CCC[C@H](COc3cc(OC)cc4oc(-c5cn6nc(OC)sc6n5)cc34)C2)cc1 [Example 31] — within 1.5-fold, 0.89 µM
- COc1cc(OC[C@@H]2CCCN2c2ccc(C(F)(F)F)cc2)c2cc(-c3cn4nc(OC)sc4n3)oc2c1 [Example 22] — 1.7-fold lower, 0.44 µM
- COc1cc(OC[C@H]2CCCN2c2ccc(F)cc2)c2cc(-c3cn4nc(OC)sc4n3)oc2c1 [Example 11] — within 1.5-fold, 0.74 µM
- COc1ccc(N2CCC[C@H]2COc2cc(OC)cc3oc(-c4cn5nc(OC)sc5n4)cc23)nc1 [Example 20] — within 1.5-fold, 0.71 µM
- COc1ccc(N2CCC[C@@H]2COc2cc(OC)cc3oc(-c4cn5nc(OC)sc5n4)cc23)cc1 [Example 10] — 1.9-fold lower, 0.39 µM
- COc1cc(OC[C@@H]2CCCN(c3ccc(Cl)cc3)C2)c2cc(-c3cn4nc(OC)sc4n3)oc2c1 [Example 34] — within 1.5-fold, 0.7 µM
- COc1cc(OCC2CCN(c3ccc(F)cc3)CC2)c2cc(-c3cn4nc(OC)sc4n3)oc2c1 [Example 50] — 6.4-fold higher, 4.8 µM
- COc1cc(OCC2CCCN(c3ccc(Cl)cn3)C2)c2cc(-c3cn4nc(OC)sc4n3)oc2c1 (stereo not shown) [Example 63] — within 1.5-fold, 0.86 µM
- CCOC(=O)c1cnc(N2CCCC(COc3cc(OC)cc4oc(-c5cn6nc(OC)sc6n5)cc34)C2)s1 (stereo not shown) [Example 61] — 2-fold higher, 1.5 µM
- COc1cc(OC[C@H]2CCCN(c3ccc(F)cc3)C2)c2cc(-c3cn4nc(OC)sc4n3)oc2c1 [Example 52] — within 1.5-fold, 1.1 µM
- COc1cc(OC[C@H]2CCCN(Cc3ccc(Cl)cc3)C2)c2cc(-c3cn4nc(OC)sc4n3)oc2c1 [Example 58] — 1.9-fold higher, 1.4 µM
- COc1cc(OCC2CCCN(C3CCOCC3)C2)c2cc(-c3cn4nc(OC)sc4n3)oc2c1 (stereo not shown) [Example 73] — 63-fold higher, 47 µM
- COc1cc(OCC2CCCN(c3ccc(Cl)cn3)C2)c2cc(-c3cn4nc(OC)sc4n3)oc2c1 (stereo not shown) [Example 64] — within 1.5-fold, 0.82 µM
- COc1cc(OCC2CCCCN2c2ccc(C#N)cc2)c2cc(-c3cn4nc(OC)sc4n3)oc2c1 (stereo not shown) [Example 46] — 3.1-fold lower, 0.24 µM
- COc1cc(OC[C@H]2CCCN2c2ccc3c(c2)OCO3)c2cc(-c3cn4nc(OC)sc4n3)oc2c1 [Example 12] — 1.8-fold lower, 0.42 µM
- COc1ccc(N2CCN(C(=O)OC(C)(C)C)CC2COc2cc(OC)cc3oc(-c4cn5nc(C)ccc5n4)cc23)cc1 (stereo not shown) [Example 3, tert-butyl 3-(((6-methoxy-2-(6-methylimidazo[1,2-b]pyridazin-2-yl)benzofuran-4-yl)oxy)methyl)-4-(4-methoxyphenyl)piperazine-1-carboxylate] — 1.6-fold higher, 1.2 µM
- CCOC(=O)c1ccc(N2CCC(COc3cc(OC)cc4oc(-c5cn6nc(OC)sc6n5)cc34)CC2)cc1 [Example 47] — within 1.5-fold, 1 µM
- COc1cc(OC[C@@H]2CCCN2c2ccc(F)cc2)c2cc(-c3cn4nc(OC)sc4n3)oc2c1 [Example 18] — 1.6-fold lower, 0.47 µM
- COc1cc(OC[C@@H]2CCCN(c3ccc(F)cc3)C2)c2cc(-c3cn4nc(OC)sc4n3)oc2c1 [Example 72] — 1.9-fold higher, 1.4 µM
- COc1cc(OCC2CCCN(c3cc(C#N)ccn3)C2)c2cc(-c3cn4nc(OC)sc4n3)oc2c1 (stereo not shown) [Example 43] — 1.6-fold lower, 0.48 µM
- CCOC(=O)c1ccc(N2CCCC(COc3cc(OC)cc4oc(-c5cn6nc(OC)sc6n5)cc34)C2)cc1 (stereo not shown) [Example 41] — 2.8-fold higher, 2.1 µM
- COc1cc(OCC2CCCN(c3ccc(N)nc3)C2)c2cc(-c3cn4nc(OC)sc4n3)oc2c1 (stereo not shown) [Example 74] — 37-fold higher, 28 µM
- COc1cc(OCC2CCCN(S(=O)(=O)c3ccc(C)cc3)C2)c2cc(-c3cn4nc(OC)sc4n3)oc2c1 (stereo not shown) [Example 8, 2-methoxy-6-(6-methoxy-4-((1-tosylpiperidin-3-yl)methoxy)benzofuran-2-yl)imidazo[2,1-b][1,3,4]thiadiazole] — 1.9-fold higher, 1.4 µM
- COc1cc(OC[C@H]2CCCN2c2ccc(C#N)cc2)c2cc(-c3cn4nc(OC)sc4n3)oc2c1 [Example 1, (R)-4-(2-(((6-methoxy-2-(2-methoxyimidazo[2,1-b][1,3,4]thiadiazol-6-yl)benzofuran-4-yl)oxy)methyl)pyrrolidin-1-yl)benzonitrile] — 1.8-fold lower, 0.42 µM
- COc1cc(OCC2CCN(c3ccc(Cl)cc3)CC2)c2cc(-c3cn4nc(OC)sc4n3)oc2c1 [Example 49] — 3.6-fold higher, 2.7 µM
- COc1ccc(N2CCNCC2COc2cc(OC)cc3oc(-c4cn5nc(C)ccc5n4)cc23)cc1 (stereo not shown) [Example 4, 2-(6-methoxy-4-((1-(4-methoxyphenyl)piperazin-2-yl)methoxy)benzofuran-2-yl)-6-methylimidazo[1,2-b]pyridazine] — 610-fold higher, 460 µM
- COc1cc(OC[C@@H]2CCCN(c3ccc(C#N)cn3)C2)c2cc(-c3cn4nc(OC)sc4n3)oc2c1 [Example 44] — the same, 0.75 µM
- COc1cc(OCC2CCCN(c3ccc(NC(=O)C(F)(F)F)nc3)C2)c2cc(-c3cn4nc(OC)sc4n3)oc2c1 (stereo not shown) [Example 71] — 1.7-fold higher, 1.3 µM
- COc1cc(OC[C@H]2CCC(=O)N2c2ccc(F)cc2)c2cc(-c3cn4nc(OC)sc4n3)oc2c1 [Example 14] — 16-fold higher, 12 µM
- COc1cc(OC[C@@H]2CCCN2c2ccc(Cl)cc2)c2cc(-c3cn4nc(OC)sc4n3)oc2c1 [Example 15] — 1.7-fold higher, 1.3 µM
- COc1cc(OC[C@@H]2CCN(c3ccc(Cl)cc3)C2)c2cc(-c3cn4nc(OC)sc4n3)oc2c1 [Example 25] — within 1.5-fold, 0.79 µM
- CCOC(=O)c1ccc(N2CCC[C@@H]2COc2cc(OC)cc3oc(-c4cn5nc(OC)sc5n4)cc23)cc1 [Example 13] — within 1.5-fold, 0.55 µM
- COc1cc(OC[C@@H]2CCCN(c3ccccc3)C2)c2cc(-c3cn4nc(OC)sc4n3)oc2c1 [Example 53] — 2.4-fold higher, 1.8 µM
- COc1cc(OC[C@@H]2CCCN2c2ccc3c(c2)OCO3)c2cc(-c3cn4nc(OC)sc4n3)oc2c1 [Example 21] — within 1.5-fold, 0.54 µM
- COc1ccc(N2CCN(C(=O)C3CC3)CC2COc2cc(OC)cc3oc(-c4cn5nc(C)ccc5n4)cc23)cc1 (stereo not shown) [Example 6, cyclopropyl(3-(((6-methoxy-2-(6-methylimidazo[1,2-b]pyridazin-2-yl)benzofuran-4-yl)oxy)methyl)-4-(4-methoxyphenyl)piperazin-1-yl)methanone] — 20-fold higher, 15 µM
- COc1cc(OCC2CCCN(c3ncc(F)cc3F)C2)c2cc(-c3cn4nc(OC)sc4n3)oc2c1 (stereo not shown) [Example 37] — within 1.5-fold, 0.56 µM
- CCOC(=O)c1ccc(N2CCC[C@@H](COc3cc(OC)cc4oc(-c5cn6nc(OC)sc6n5)cc34)C2)cc1 [Example 29] — within 1.5-fold, 0.95 µM
- COc1ccc(N2CCN(CC3CC3)CC2COc2cc(OC)cc3oc(-c4cn5nc(C)ccc5n4)cc23)cc1 (stereo not shown) [Example 7, 2-(4-((4-(cyclopropylmethyl)-1-(4-methoxyphenyl)piperazin-2-yl)methoxy)-6-methoxybenzofuran-2-yl)-6-methylimidazo[1,2-b]pyridazine] — 21-fold higher, 16 µM
